Results taken from patent US9040261B2, “Compounds as L-cystine crystallization inhibitors and uses thereof” (NEW YORK UNIVERSITY, priority 2009, dated 2015).
Where a name gives a salt, the structure may show the parent alone. Marks after values point to notes of the source that are not given here.

Columns and labels:
[1] = Bulk crystallization of L-cystine in the presence of additives (mass yield); details: for influence on L-cystine growth: polymers and proteins with proximal carboxylate and amine groups
Protocol: Alternately, the hexagonal crystals can be obtained by crystallization performed near neutral pH (Sa) The hexagonal form was crystallized from a supersaturated L-cystine solution prepared by adding 70 mg of L-cystine to 100 mL of deionized water (3 mM), and heating under reflux at 100° C. for 20 min with stirring to completely dissolve L-cystine. […] This concentration was used for bulk crystallization studies in the presence of additives so that a measurable amount of bulk crystals could be obtained in a reasonable time. The solution was then allowed to cool slowly with stirring for 75 min. 30 mL aliquots were transferred to separate glass containers, which were then sealed to prevent evaporation and exposure to airborne particulates and stored for 72 hours at room temperature without stirring. […] The crystals retrieved in this manner were used for AFM studies by mounting individual crystals according to the procedure described below.
Various proteins, poly-amino acids, and molecular mimics of L-cystine were examined as additives. The aforementioned procedure for hexagonal platelet crystallization was repeated. Following the 75 min cooling period, prior to any observable crystallization, the additive was added to the supersaturated L-cystine solution to the desired concentration. […] Crystallization without additive was performed in an identical manner for comparison using a control solution from the same batch. The mass yields of L-cystine crystals were obtained by dividing the mass of L-cystine crystals (collected from growth solution by filtration) by the mass of L-cystine added in the growth solution.
Additives chosen for these studies were various proteins, poly-amino acids, and molecular mimics of L-cystine (see Table 1). The above procedure for hexagonal platelet crystallization was repeated until completion of the 75 min cooling period, at which point 29.5 g of solution was transferred to a 100 mL beaker containing 0.5 g of separately prepared additive solution to yield net concentrations of 2 mg/L additive and 0.7 g/L L-cystine. Additive solutions were replaced with deionized water of equivalent volume for control measurements. […]
L-cystine bulk crystallization was investigated in the presence of various polymers, urinary constituents, fish antifreeze proteins (AFPs), and L-cystine derivatives (i.e. structural mimics of L-cystine), which were analyzed as possible growth inhibitors of hexagonal L-cystine. The potency of each additive was assessed by comparing the difference in crystal yield (Table 1), which is equal to the mass of crystals formed in the presence of 2 mg/L additive (isolated with […]) divided by the total mass of L-cystine (700 mg/L).

[2] = Crystal size and habit by optical microscopy and SEM after bulk crystallization with additive; details: for L-cystine crystal habit in the presence of additive: hexagonal platelets without additive
Protocol: Various proteins, poly-amino acids, and molecular mimics of L-cystine were examined as additives. The aforementioned procedure for hexagonal platelet crystallization was repeated. Following the 75 min cooling period, prior to any observable crystallization, the additive was added to the supersaturated L-cystine solution to the desired concentration. The container was sealed and stored for 72 hours at room temperature without stirring, after which the precipitate was collected by vacuum filtration (Whatman Grade 1 filters, >11 μm pores) and were air dried prior to analysis. Crystallization without additive was performed in an identical manner for comparison using a control solution from the same batch. The mass yields of L-cystine crystals were obtained by dividing the mass of L-cystine crystals (collected from growth solution by filtration) by the mass of L-cystine added in the growth solution. The crystals were isolated with 11 μm-pore filters, which were regarded as sufficiently small for reliable capture of the crystals (optical micrographs reveal that the size of crystals was always greater than 50 μm
An Orion 3 Star pH meter (Thermo Electron Corp.) with Orion 9157BNMD probe was used to measure the pH of L-cystine solutions. Crystal morphology was measured with a Leitz ERGOLUZ optical microscope and a Hitachi 3500 scanning electron microscopy. A thin coating of gold (2 nm) was sputtered on SEM samples and images were acquired at low voltage (2-5 kV) to minimize sample melting. ^1H NMR spectra were recorded using a Bruker AVANCE 400 spectrometer and were routinely run using broadband decoupling. Chemical shifts (δ), expressed in ppm, are referenced to the corresponding residual nuclei in deuterated solvent (D2O). Powder X-ray diffraction (XRD) patterns of isolated crystals were acquired with a Panalytical XPert PRO MPD using a Bragg-Brentano geometry with fixed slits at power settings of 45 kV and 40 mA. A CuKa radiation (0.154 nm) source was used with a 1 degree fixed divergence slit (10 mm beam mask) for incident X-rays and a 1 degree anti-scatter slit Ni filter ( 1/16 degree receiving slit) for diffracted X-rays.

[3] = AFM step velocity and hillock imaging with L-cystine diesters under continuous flow; details: 0.015 mM inhibitor, 2 mM L-cystine
Protocol: Atomic force microscopy was performed with a Digital Instruments (Santa Barbara, Calif.) Nanoscope Ma Multimode system. All measurements were performed in a cell designed to contain liquids for in situ imaging, including step velocity measurements. All measurements were performed in contact mode using Veeco NP_B Si3N4 tips on silicon nitride cantilevers with a spring constant of 0.12N/m (triangular, 196 μm length, 41 μm width). L-cystine crystals (hexagonal form) were transferred onto an AFM specimen disk coated with partially cured (1 hr) UV-curable optical cement (Type SK-9, EMS Acquisition Corp.) by gently pressing the disk against hexagonal platelets collected by filtration (Whatman Nuclepore membrane, 8 μm). The (001) faces of the hexagonal plates naturally aligned parallel with the specimen disk such that the velocity of the equivalent {100} steps could be measured readily by AFM. The partially cured polymer with the adhered crystals was cured completely by additional UV radiation (2 hrs) prior to analysis. The mounted L-cystine crystals were etched slightly by immersion in deionized water for 30 sec at 60° C. to remove amorphous deposits or impurities that may be present on the surface. Step velocities on the hexagonal L-cystine crystals were measured by AFM using a fluid cell containing an aqueous solution, supersaturated with L-cystine (2 mM), introduced to the cell via a syringe. Step velocities were determined by measuring the distance of the steps from a reference point, usually the dislocation core, in consecutive deflection images acquired at periodic intervals, ranging from 9-14 sec. Measurements were acquired under continuous flow of fresh solution in order to maintain constant supersaturation and additive concentration. […] The step velocities, which correspond to the crystal growth rates, were measured with and without inhibitor for each pair.

[4] = 2 mg/L additive, 0.7 g/L L-cystine (pH 6.8), no additive 80, approximate error ±8%
[5] = 10 mg/L L-cysteine methylester, 700 mg/L L-cystine

## Poly-L-lysine [reference compound]
[1]; [4]
  Yield (%) = (collected mass by filtration, >11 μm)/(total mass added) × 100%: 64%
[1]; Table 1
  influence on L-cystine growth: negligible influence

## O=C(O)CC(O)(CC(=O)O)C(=O)O [Citrate, sodium citrate (dihydrate), reference compound]
[1]; pH 6.8
  Yield (%) = (collected mass by filtration, >11 μm)/(total mass added) × 100%: 74%

## COC(=O)[C@@H](N)CS.Cl [L-cysteine methyl ester, L-cysteine methyl ester hydrochloride, reference compound]
[1]; 10 mg/L additive, 0.7 g/L L-cystine, no additive 80±8%, hydrochloride
  Yield (%) = (collected mass by filtration, >11 μm)/(total mass added) × 100%: 32%
[2]; [5]
  needle length: < 50 μm
  needle width: < 5 μm
[2]
  L-cystine crystal habit in the presence of additive: needles

## CCOC(=O)[C@@H](N)CSSC[C@H](N)C(=O)OCC [L-CDEE, Cystine Diethyl Ester]
[3]
  order of step roughening, corresponding to the trend in inhibition: L-CDME>L-CDEE>L-CDIE>L-CDTE

## CC(C)(C)SSC[C@H](N)C(=O)O [S-tert-butylmercapto-L-cystine, 5-tert-butylmercapto-L-cysteine, reference compound]
[1]; [4]
  Yield (%) = (collected mass by filtration, >11 μm)/(total mass added) × 100%: 45%

## Chondroitin sulfate
[1]; [4]
  Yield (%) = (collected mass by filtration, >11 μm)/(total mass added) × 100%: 64%

## Desialylated Tamm-Horsfall protein: native THP desialylated by treatment with neuraminidase (50% reduction of carbohydrate content)
[1]; [4]
  Yield (%) = (collected mass by filtration, >11 μm)/(total mass added) × 100%: 41%

## COC(=O)[C@@H](N)CSSC[C@H](N)C(=O)O [CME, L-Cystine Methyl Ester]
[1]; [4]
  Yield (%) = (collected mass by filtration, >11 μm)/(total mass added) × 100%: 92* %
[1]; bulk crystallization
  CME concentration needed for crystal growth inhibition similar to CDME: more than twice that of CDME
[2]
  needle volume less than hexagonal platelets: ~100 times
  L-cystine crystal habit in the presence of additive: tapered hexagonal crystals

## Transferrin: apo-transferrin (human, >98%)
[1]; [4]
  Yield (%) = (collected mass by filtration, >11 μm)/(total mass added) × 100%: 56%

## Poly-L-aspartate [reference compound]
[1]; [4]
  Yield (%) = (collected mass by filtration, >11 μm)/(total mass added) × 100%: 44%

## Poly-L-arginine [reference compound]
[1]; [4]
  Yield (%) = (collected mass by filtration, >11 μm)/(total mass added) × 100%: 34%

## Tamm-Horsfall protein: Tamm-Horsfall protein obtained from a human sample with no history of kidney stone disease
[1]; [4]
  Yield (%) = (collected mass by filtration, >11 μm)/(total mass added) × 100%: 69%
[1]; Table 1
  influence on L-cystine growth: negligible influence

## O=C(O)CCSSCCC(=O)O [3,3′-Dithiodiproprionic acid, 3,3′-dithiodipropionic acid, reference compound]
[1]; [4]
  Yield (%) = (collected mass by filtration, >11 μm)/(total mass added) × 100%: 72%

## CC(C)(C)OC(=O)[C@@H](N)CSSC[C@H](N)C(=O)OC(C)(C)C [L-CDTE, Cystine Di-t-Butyl Ester]
[3]
  order of step roughening, corresponding to the trend in inhibition: L-CDME>L-CDEE>L-CDIE>L-CDTE

## N[C@@H](CS)C(=O)O [L-cysteine, reference compound]
[1]; 10 mg/L additive, 0.7 g/L L-cystine, no additive 80±8%
  Yield (%) = (collected mass by filtration, >11 μm)/(total mass added) × 100%: 91%
[1]; bulk crystallization, Table 1
  influence on mass yield: did not influence the yield
[2]
  L-cystine crystal habit in the presence of additive: Hexagonal L-cystine platelets

## CC(C)(SSC(C)(C)[C@@H](N)C(=O)O)[C@H](N)C(=O)O [D-penicillamine disulfide, reference compound]
[1]; [4]
  Yield (%) = (collected mass by filtration, >11 μm)/(total mass added) × 100%: 65%

## Osteopontin (bovine): Osteopontin, extracted and purified from bovine milk, contains 7 wt % Ca2+ ions
[1]; [4]
  Yield (%) = (collected mass by filtration, >11 μm)/(total mass added) × 100%: 52%
[1]; Table 1
  influence on L-cystine growth: negligible influence

## CC(C)OC(=O)[C@@H](N)CSSC[C@H](N)C(=O)OC(C)C [L-CDIE, L-Cystine Di-Isopropyl Ester]
[3]
  order of step roughening, corresponding to the trend in inhibition: L-CDME>L-CDEE>L-CDIE>L-CDTE

## Poly-L-glutamate [reference compound]
[1]; [4]
  Yield (%) = (collected mass by filtration, >11 μm)/(total mass added) × 100%: 56%
[1]; Table 1
  influence on L-cystine growth: negligible influence
